From patent US8735129B2, “Ginsenoside glycosidase derived from the genus Terrabacter, and use thereof” (Korea Research Institute of Bioscience and Biotechnology, priority 2009, dated 2014)
Read-outs that look alike come from different tables or passages of the source.

What was measured:
recombinant Bgl-gyp17 [1] = assay: Enzymatic hydrolysis of PPD-type ginsenosides (TLC, HPLC, NMR); type: biochemical, Terrabacter ginsenosidimutans Gsoil 3082; conditions: 0.2 U enzyme, 50 mM sodium phosphate pH 7.0, 37° C., hydrolysis of glucoses at C-3
Procedure: In order to analyze the specificity and selectivity of the recombinant enzyme for the hydrolysis of glucose at the C-3 and C-20 positions of PPD-type ginsenoside, ginsenoside Rb1, Rb2, Rc, Rd, and Rg3 were used as substrates. Each reaction mixture containing 0.2 U enzyme, 50 mM sodium phosphate buffer 0.1% (w/v) (pH 7.0), and the substrate was incubated at 37° C. Each sample was withdrawn at regular intervals, and an equal volume of water-saturated butanol was added to stop the reaction. The n-butanol fraction was evaporated to dryness, and any residual material was dissolved in CH3OH and then examined by TLC HPLC or NMR analysis.

tumor cells = conditions: cited from earlier work
[2] = system: F9 teratocarcinoma stem cells; conditions: cited from earlier work
[3] = system: B16 melanoma, MK-1 (stomach cancer cell), ovarian cancer cell (HRA); conditions: MK-1, HRA; cited from earlier work
[4] = cited from earlier work
[5] = system: refolded recombinant ginsenoside glycosidase; assay: Reaction of refolded recombinant ginsenoside glycosidase with Rb1, TLC analysis; type: biochemical, Terrabacter ginsenosidimutans Gsoil 3082; conditions: 1 mg/ml Rb1 solution in 50 mM sodium phosphate
Procedure: E. coli C41(DE3) containing an overexpressing plasmid was cultured in LB-ampicillin media at 37° C. when the OD value at 600 nm reached 0.6, and treated with 0.5 mM isopropyl-β-D-thiogalactopyranoside for 12 hours to induce protein expression. The bacterial cells were obtained by centrifugation at 4° C. and 5,000×g for 20 minutes. The cell pellet was resuspended in a solution (suspension) consisting of 50 mM sodium phosphate, 5 mM EDTA, and 1% Triton X-100 (pH 7.0) and subjected to ultrasonification. Since the recombinant ginsenoside glycosidase was expressed as an insoluble inclusion body, the sonicated lysate was centrifuged at 4° C. and 20,000×g for 30 minutes to obtain a pellet. The pellet was washed twice with a suspension solution in the absence of Triton X-100. The inclusion body was stirred in a solution containing 50 mM sodium phosphate, 5 mM EDTA, and 8 M urea (pH 8.0) at room temperature overnight for solubilization. After centrifugation (20,000×g, 30 minutes, 4° C.), the solubilized protein was diluted with 40 volumes of a refolding buffer containing 50 mM sodium phosphate, 5% glycerol, 0.05% polyethylene glycol and 0.5 mM sodium chloride at pH 7.0, and refolding of the protein was performed at 4° C. for 24 hours. […] Protein similarity was determined by 10% SDS-PAGE and Coomassie Blue staining. […]

recombinant Bgl-gyp17 [6] = assay: Enzymatic hydrolysis of PPD-type ginsenosides (TLC, HPLC, NMR); type: biochemical, Terrabacter ginsenosidimutans Gsoil 3082; conditions: 1 mg/ml ginsenoside Rb1, enzyme concentrations lower than 0.01 mg/ml
[7] = Specific activity of the enzyme with pNPGlc; type: biochemical
Procedure: Specific activity was measured using 90 μl of 50 mM sodium phosphate buffer containing 2.0 mM pNPGlc (p-nitrophenyl-β-D-glucopyranoside; Sigma) at pH 7.0, and 10 μl of the diluted purified enzyme was treated at 37° C. for 20 minutes before initiation of the reaction, followed by incubation. 0.1 ml of 1 M Na2CO3 was treated for 5 minutes to terminate the reaction, and the secretion of p-nitrophenol was immediately measured at 405 nm. One unit of activity was defined as the amount of enzyme that released 1 μmol of p-nitrophenol per minute. Specific activity is expressed in units per milligram protein. Protein concentration was measured using a Bio-Rad protein staining reagent according to the protocol. All analyses were performed at least three times.

[8] = Kinetic studies (Km, Vmax) with pNPGlc; type: biochemical; conditions: hydrolysis of pNPGlc, 37° C., Cleland program
Procedure: Kinetic studies were performed with freshly purified enzyme using pNPGlc at the concentrations from 0.1 mM to 0.6 mM. Its absorbance at 405 nm was monitored at 37° C. for 20 minutes. The resulting data were used to determine Km and Vmax using the Enzyme Kinetics Program reported by Cleland.
In order to examine the substrate specificity of Bgl-gyp17, it was incubated in 50 mM sodium phosphate buffer containing 2.0 mM βα and β-type p-NP (p-nitrophenyl) and oNP (O-nitrophenyl)-glycosidase at pH 7.0 and 37° C. […] The Km and Vmax for the hydrolysis of pNPGlc by ginsenoside glycosidase were determined using 0-2 mM substrate and the enzyme kinetics program reported by Cleland. The values measured by the program were 4.24 mM and 0.10 mmol*min^−1*mg of protein^−1 for pNpGlc.

[9] = type: biochemical; conditions: after incubation at 45° C. for 30 minutes
Procedure: The thermo-dependence of the activity was assayed in 50 mM potassium phosphate buffer at various temperatures ranging from 4 to 90° C. Thermostability was tested by incubating aliquots of the enzyme in 50 mM potassium phosphate buffer for 30 minutes at different temperatures. After cooling the sample on ice for 10 minutes, residual activity was determined by a standard analysis;
The pH effect on the enzymatic activity was measured using 2.0 mM pNPGlc in the following buffer (50 mM):
Buffer: pH range of 2 to 10: KCl—HCl (pH 2), glycine-HCl (pH 3), sodium acetic acid (pH 4 and 5), sodium phosphate (pH 6 and 7), Tris-HCl (pH 8 and 9) and glycine-sodium hydroxide (pH 10).
The enzyme was incubated in each of the above mentioned buffers at 4° C. for 24 hours, and then pHPGlc was analyzed in 50 mM potassium buffer to measure the enzymatic stability according to pH change. The activity was measured by the above mentioned method.
The results were represented as an activity probability obtained at the optimum pH.
The temperature-dependent activity in the 50 mM potassium phosphate buffer was analyzed within the temperature range of 4-90° C. using 2.0 mM pNPGlc at the optimum pH for 5 minutes. […] The sample was cooled in ice for 10 minutes, and the residual activity was measured by pNPGlc analysis.

## CC(C)=CCC[C@](C)(O[C@@H]1O[C@H](CO)[C@@H](O)[C@H](O)[C@H]1O)[C@H]1CC[C@]2(C)[C@@H]1[C@H](O)C[C@@H]1[C@@]3(C)CC[C@H](O[C@@H]4O[C@H](CO)[C@@H](O)[C@H](O)[C@H]4O)C(C)(C)[C@@H]3CC[C@]12C [F2, ginsenoside F2]
Recombinant Bgl-gyp17 [1]
  conversion of the ginsenoside by the enzyme (product): further converted into C—K (compound K) and C—K
Tumor cells
  effect on proliferation of tumor cells: suppressing the proliferation of tumor cells
Tumor cells; tumor cells and bacteria
  effect on multi-drug resistance: reversing multi-drug resistance

## CC(C)=CCC[C@](C)(O)[C@H]1CC[C@]2(C)[C@@H]1[C@H](O)C[C@@H]1[C@@]3(C)CC[C@H](O)C(C)(C)[C@@H]3[C@@H](O[C@@H]3O[C@H](CO)[C@@H](O)[C@H](O)[C@H]3O)C[C@]12C [Rh1]
[2]
  induction of differentiation: strongly induce the differentiation
[3]
  inhibitory effects on proliferation: strong inhibitory effects

## CC(C)=CCC[C@](C)(O)[C@H]1CC[C@]2(C)[C@@H]1[C@H](O)C[C@@H]1[C@@]3(C)CC[C@H](O[C@@H]4O[C@H](CO)[C@@H](O)[C@H](O)[C@H]4O)C(C)(C)[C@@H]3CC[C@]12C [Rh2, ginsenoside Rh2]
Recombinant Bgl-gyp17 [1]
  conversion of the ginsenoside by the enzyme (product): converted Rh2 into PPD and PPD
[2]
  induction of differentiation: strongly induce the differentiation
[3]
  inhibitory effects on proliferation: strong inhibitory effects

## CC(C)=CCC[C@](C)(O[C@@H]1O[C@H](CO[C@@H]2OC[C@H](O)[C@H](O)[C@H]2O)[C@@H](O)[C@H](O)[C@H]1O)[C@H]1CC[C@]2(C)[C@@H]1[C@H](O)C[C@@H]1[C@@]3(C)CC[C@H](O[C@@H]4O[C@H](CO)[C@@H](O)[C@H](O)[C@H]4O[C@@H]4O[C@H](CO)[C@@H](O)[C@H](O)[C@H]4O)C(C)(C)[C@@H]3CC[C@]12C [ginsenoside Rb2]
Recombinant Bgl-gyp17 [1]
  conversion of the ginsenoside by the enzyme (product): C—Y (compound Y)
Recombinant Bgl-gyp17 [1]; listed as Rb2
  conversion of the ginsenoside by the enzyme (product): C—Y
[4]; in vivo, po
  in vivo absorption: very low in vivo absorption

## CC(C)=CCC[C@](C)(O[C@@H]1O[C@H](CO[C@@H]2O[C@H](CO)[C@@H](O)[C@H](O)[C@H]2O)[C@@H](O)[C@H](O)[C@H]1O)[C@H]1CC[C@]2(C)[C@@H]1[C@H](O)C[C@@H]1[C@@]3(C)CC[C@H](O[C@@H]4O[C@H](CO)[C@@H](O)[C@H](O)[C@H]4O[C@@H]4O[C@H](CO)[C@@H](O)[C@H](O)[C@H]4O)C(C)(C)[C@@H]3CC[C@]12C [ginsenoside Rb1]
Recombinant Bgl-gyp17 [1]
  conversion of the ginsenoside by the enzyme (product): C—K
[5]
  conversion of the ginsenoside (TLC): converted ginsenoside Rb1 into gyp XVII
Recombinant Bgl-gyp17 [6]
  hydrolysis of the ginsenoside: completely hydrolyzed to produce gyp XVII
[4]; in vivo, po
  in vivo absorption: very low in vivo absorption

## CC(C)=CCC[C@](C)(O[C@@H]1O[C@H](CO[C@@H]2O[C@@H](CO)[C@H](O)[C@H]2O)[C@@H](O)[C@H](O)[C@H]1O)[C@H]1CC[C@]2(C)[C@@H]1[C@H](O)C[C@@H]1[C@@]3(C)CC[C@H](O[C@@H]4O[C@H](CO)[C@@H](O)[C@H](O)[C@H]4O[C@@H]4O[C@H](CO)[C@@H](O)[C@H](O)[C@H]4O)C(C)(C)[C@@H]3CC[C@]12C [Rc, ginsenoside Rc]
Recombinant Bgl-gyp17 [1]
  conversion of the ginsenoside by the enzyme (product): C-Mc (compound Mc) and C-Mc
[4]; orally administered into the human body
  in vivo absorption: very low in vivo absorption

B1: Bgl-gyp17: recombinant ginsenoside glycosidase from Terrabacter Gsoil 3082, SEQ ID NO. 1, 589 residues (protein, listed as Terrebacter sp.)
chain: MDPYEDPRLPVEVRVEDLLGRLSLEEKVGLMFQTVIEAGSDGTVLEHPGSISKSPTSTVVLDKHLTHFNVHALDDPRMAARWSNALQALAERTPHGIPVTVSTDPRHAFIENVGVSFSAGAFSQWPEPLGLAALRDADAVRRFADIARQEYVAVGIRAALHPTLDLATEPRWARQAGTFGQDPDLVTELGVAYLKGFQGDSLGSGSVACTSKHFPGGGPQKDGEDAHFPYGREQVYPGGRFADHLKPFPPIIEAGTAGIMPYYGMPVDLVVDGVEIEPIGFGYNKQVVTGLLREKLGYDGVVVTDWELVNDNHVGDQVLPARAWGVEHLDPHGRMELILEAGADQFGGEECVEILLDLVAQGRVTEARVDESARRILAVKFRLGLFENPYVDEDEAAATVGRDDFREEGYAAQARSVTVLHHEGGRLPLEHGLRIYAEQVSPEAVARHGKLVDRPEDADVAVVRLTAPFDPRSDLFLESWFHQGSLDFPPGLVARLERIAAVCPLVVDVVLDRPAVLTPLLRFASAVVGSFGSCDDALLDALTGTIAPVGRLPFDLPRSMDQVRAHGEDVPGYDDPLFPFGHGLRLDTE
modifications: PEPTIDE (1)..(589) amino acid sequence of Bgl-gyp17
notes: 1, 589 residues
[7]; control without metal ions or reagents, Table 5
  specific activity at 100%: ^aThe specific activity at 100% was 44.3 U/mg.
[7]; purification step: Crude extract
  Specific activity (U/mg): 23.4 U/mg
[7]; purification step: DEAE-cellulose purification
  Specific activity (U/mg): 65.8 U/mg
[7]; purification step: Ni purification
  Specific activity (U/mg): 65.0 U/mg
[8]
  Km: 4.24 mM
  Vmax: 0.10 mmol*min^−1*mg of protein^−1
[9]
  loss of activity: approximately 32%
